What was measured:
[1] = tested on: female ICR mice; experiment: Estrous cycle stage by vaginal smears; type: in vivo, mouse
Procedure: Female ICR mice at least 3 months old were administered embodied compounds of this invention (Compound 79 and Compound 68) (6 mg/Kg) or DMSO alone (0.5%) by subcutaneous administration. Vaginal smears were taken at baseline and at 12 hours following the administration to determine estrous cycle stage and mice were then sacrificed.

[2] = molecular target: T1, telomerase (Mus musculus, UniProt O70372); experiment: Telomerase activity in mouse ovary by TRAP assay after s.c. injection; type: in vivo; conditions: single dose 6 mg/Kg s.c., 12 hours
T1 construct: the ovaries were removed, and proteins extract used for measuring telomerase activity by TRAP assay; from tissue; host or cells: ovary of female ICR mice
T1 sequence (O70372 1-1122): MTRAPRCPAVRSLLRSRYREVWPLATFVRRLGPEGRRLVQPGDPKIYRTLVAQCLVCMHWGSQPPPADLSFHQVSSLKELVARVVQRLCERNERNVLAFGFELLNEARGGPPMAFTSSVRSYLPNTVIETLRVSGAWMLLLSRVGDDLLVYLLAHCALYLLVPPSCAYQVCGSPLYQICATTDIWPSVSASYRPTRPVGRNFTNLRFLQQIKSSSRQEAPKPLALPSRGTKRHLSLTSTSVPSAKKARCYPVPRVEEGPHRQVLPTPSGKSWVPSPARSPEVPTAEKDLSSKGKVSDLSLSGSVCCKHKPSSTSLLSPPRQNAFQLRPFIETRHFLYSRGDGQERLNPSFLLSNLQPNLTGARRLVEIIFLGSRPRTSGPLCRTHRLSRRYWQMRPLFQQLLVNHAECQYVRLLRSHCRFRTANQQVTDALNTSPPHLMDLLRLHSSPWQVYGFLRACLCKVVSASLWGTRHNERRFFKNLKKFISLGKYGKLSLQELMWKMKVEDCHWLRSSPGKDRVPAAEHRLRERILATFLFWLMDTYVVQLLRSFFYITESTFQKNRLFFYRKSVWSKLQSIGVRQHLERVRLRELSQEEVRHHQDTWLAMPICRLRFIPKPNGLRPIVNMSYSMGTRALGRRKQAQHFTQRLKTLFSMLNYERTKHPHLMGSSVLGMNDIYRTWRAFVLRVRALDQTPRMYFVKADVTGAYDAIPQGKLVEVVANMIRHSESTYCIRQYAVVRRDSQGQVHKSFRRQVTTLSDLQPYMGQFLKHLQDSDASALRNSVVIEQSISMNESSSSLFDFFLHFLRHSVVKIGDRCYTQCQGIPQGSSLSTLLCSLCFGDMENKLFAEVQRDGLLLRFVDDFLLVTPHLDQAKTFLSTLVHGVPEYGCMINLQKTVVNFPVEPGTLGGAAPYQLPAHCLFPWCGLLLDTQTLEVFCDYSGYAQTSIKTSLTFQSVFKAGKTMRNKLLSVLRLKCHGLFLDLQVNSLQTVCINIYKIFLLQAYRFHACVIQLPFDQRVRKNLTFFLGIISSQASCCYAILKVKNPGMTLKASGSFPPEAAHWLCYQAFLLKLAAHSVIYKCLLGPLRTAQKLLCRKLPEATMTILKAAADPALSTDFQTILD
Procedure: The ovaries were homogenized and centrifuged at 1200 RPM at 4° C. for 10 min, then suspended in CHAPS buffer (10 mM Tris-HCl pH-7.0, 1 mM MgCl2, 1 mM EDTA […], 0.1 mM PMSF, 0.5% 3 [(3 Cholamidopropyl)dimethylammonio]-propanesulfonic acid [CHAPS] and 10% glycerol) on ice for 30 min and centrifuged again at 13500 RPM at 4° C. for 30 min, the supernatant was collected. Total proteins concentration was determined using the Bio-Rad protein assay kit (Bio-Rad Laboratories, Germany).
Telomerase activity in mice ovary was evaluated by a slight modification of the TRAP assay [Grin, Y., T. Admoni, and E. Priel, Telomerase activity in the various regions of mouse brain: non-radioactive telomerase repeat amplification protocol (TRAP) assay. J Vis Exp, 2014 (91): p. e51865]. […] These products were separated on a 4.5% high-resolution agarose mini-gel and detected with Gel-Red solution (X10000 stock solution diluted to X3 working solution with 0.01M NaCl) for 20 minutes. […] Quantification of Telomerase Activity
TRAP assay products were quantified by densitometric analysis using the EZQuant software (EZQuant Ltd. Rehovot, Israel) and normalized to IS (Internal standard). […] The data which were normalized to the IS were calculated as % from the positive control values in each experiment. […]

[3] = injected at the diestrus or metestrus stages
[4] = single dose injected in the proestrus or estrus stages

CC(c1cc(Br)c(O)c(Br)c1)(c1cc(Br)c(O)c(Br)c1)c1cc(Br)c(O)c(Br)c1 [Compound 68]
estrous cycle stage 12 hrs post treatment [1, 3]: No changes in the estrous cycle stage
estrous cycle stage 12 hrs post treatment [1, 4]: in the metestrus stage
increase of telomerase activity in mouse ovary ([2]; all examined ages (10 days, 18 days, 1 month, 3 months)): up to 1.5 fold

CCOCc1cc(C(C)(c2cc(COCC)c(O)c(COCC)c2)c2cc(COCC)c(O)c(COCC)c2)cc(COCC)c1O [Compound 79]
estrous cycle stage 12 hrs post treatment [1, 3]: No changes in the estrous cycle stage
estrous cycle stage 12 hrs post treatment [1, 4]: in the metestrus stage
telomerase activity in mouse ovary at various ages ([2]; ages 10 days to 3 months): significantly increased telomerase activity only in the ovary of 3 months old mouse

From patent US12576047B2, “Telomerase activating compounds for use in fertility and related applications” (Neuromagen Pharma Ltd, priority 2017, dated 2026)
